Results published in PMC5923425, “Structural analysis of human ARS2 as a platform for co-transcriptional RNA sorting” (Nature Communications, 2018).

How the values were obtained:
[1] = molecular target: T1, NCBP3 (full-length, residues 1–620) (Homo sapiens, UniProt Q53F19); experiment: isothermal titration calorimetry; type: binding
T1 construct: full-length residues 1-620, pFASTBac HTb, expressed in High Five insect cells, N-terminal His6 tag cleaved with TEV
T1 sequence (Q53F19 1-620): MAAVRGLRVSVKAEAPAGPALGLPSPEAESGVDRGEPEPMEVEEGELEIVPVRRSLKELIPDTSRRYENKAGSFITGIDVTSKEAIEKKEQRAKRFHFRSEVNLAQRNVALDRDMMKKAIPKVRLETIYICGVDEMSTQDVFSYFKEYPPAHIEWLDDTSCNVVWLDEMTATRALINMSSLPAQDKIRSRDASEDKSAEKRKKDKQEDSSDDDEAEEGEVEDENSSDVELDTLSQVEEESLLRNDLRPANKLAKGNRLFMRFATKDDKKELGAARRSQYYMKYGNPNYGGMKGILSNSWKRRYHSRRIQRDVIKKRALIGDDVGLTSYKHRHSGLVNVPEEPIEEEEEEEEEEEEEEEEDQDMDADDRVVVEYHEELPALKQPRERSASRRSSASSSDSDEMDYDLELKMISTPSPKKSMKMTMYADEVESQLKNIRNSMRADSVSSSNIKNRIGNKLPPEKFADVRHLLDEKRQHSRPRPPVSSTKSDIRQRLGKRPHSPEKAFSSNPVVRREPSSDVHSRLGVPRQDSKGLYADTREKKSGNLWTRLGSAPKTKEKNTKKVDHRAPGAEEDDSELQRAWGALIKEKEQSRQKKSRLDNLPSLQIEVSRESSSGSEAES
From the text: isothermal titration calorimetry on NCBP3 (full-length, residues 1–620)

[2] = molecular target: T2, NCBP3/2xCBP80 (Homo sapiens, UniProt Q53F19); experiment: isothermal titration calorimetry; type: binding
T2 construct: full-length NCBP3 (insect cells, tag cleaved) with CBP80 added (2x, apparently molar excess)
T2 sequence (Q53F19 1-620): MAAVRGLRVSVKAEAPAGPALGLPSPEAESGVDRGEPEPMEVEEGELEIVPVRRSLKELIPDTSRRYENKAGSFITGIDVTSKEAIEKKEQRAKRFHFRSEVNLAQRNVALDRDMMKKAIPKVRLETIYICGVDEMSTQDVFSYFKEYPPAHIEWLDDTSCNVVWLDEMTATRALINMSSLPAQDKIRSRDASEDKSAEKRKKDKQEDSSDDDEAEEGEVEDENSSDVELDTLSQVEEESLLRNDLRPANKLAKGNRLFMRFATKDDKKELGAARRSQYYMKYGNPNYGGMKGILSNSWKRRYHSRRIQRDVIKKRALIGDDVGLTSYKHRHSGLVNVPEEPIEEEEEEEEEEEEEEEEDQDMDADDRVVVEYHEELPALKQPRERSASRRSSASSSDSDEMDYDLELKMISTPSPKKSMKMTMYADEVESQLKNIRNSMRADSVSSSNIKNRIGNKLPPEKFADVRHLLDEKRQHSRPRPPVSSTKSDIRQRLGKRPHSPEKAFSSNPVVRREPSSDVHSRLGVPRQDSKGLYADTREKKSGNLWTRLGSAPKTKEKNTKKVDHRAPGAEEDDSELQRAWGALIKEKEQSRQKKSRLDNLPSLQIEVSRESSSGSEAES
T2 sequence (Q09161 20-790 partner limits assumed): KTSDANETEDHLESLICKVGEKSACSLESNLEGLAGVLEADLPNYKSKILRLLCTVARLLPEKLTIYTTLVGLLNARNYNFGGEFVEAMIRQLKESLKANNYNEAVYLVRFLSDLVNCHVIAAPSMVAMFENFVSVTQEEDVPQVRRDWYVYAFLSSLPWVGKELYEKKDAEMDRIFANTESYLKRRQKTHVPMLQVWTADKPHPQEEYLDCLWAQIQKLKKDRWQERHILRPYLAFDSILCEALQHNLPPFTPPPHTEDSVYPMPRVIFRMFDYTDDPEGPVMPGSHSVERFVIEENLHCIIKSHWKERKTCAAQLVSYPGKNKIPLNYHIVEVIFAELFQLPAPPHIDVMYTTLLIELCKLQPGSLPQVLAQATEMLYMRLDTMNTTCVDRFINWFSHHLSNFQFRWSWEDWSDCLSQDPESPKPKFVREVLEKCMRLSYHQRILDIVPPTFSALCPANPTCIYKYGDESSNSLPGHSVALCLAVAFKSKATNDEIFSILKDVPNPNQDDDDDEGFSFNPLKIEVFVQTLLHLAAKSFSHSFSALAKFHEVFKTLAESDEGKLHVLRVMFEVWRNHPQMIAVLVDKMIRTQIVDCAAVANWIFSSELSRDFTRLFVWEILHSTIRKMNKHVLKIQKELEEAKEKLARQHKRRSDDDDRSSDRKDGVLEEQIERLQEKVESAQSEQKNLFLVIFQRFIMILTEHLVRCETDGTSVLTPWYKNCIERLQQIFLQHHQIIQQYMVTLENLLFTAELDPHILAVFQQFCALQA
From the text: isothermal titration calorimetry on NCBP3/2xCBP80

[3] = molecular target: T3, NCBP3 1–282 (Homo sapiens, UniProt Q53F19); experiment: isothermal titration calorimetry; type: binding
T3 construct: N-terminal region with putative RRM domain, residues 1-282, pETM11, E. coli Rosetta 2, His6 tag cleaved with TEV
T3 sequence (Q53F19 1-282): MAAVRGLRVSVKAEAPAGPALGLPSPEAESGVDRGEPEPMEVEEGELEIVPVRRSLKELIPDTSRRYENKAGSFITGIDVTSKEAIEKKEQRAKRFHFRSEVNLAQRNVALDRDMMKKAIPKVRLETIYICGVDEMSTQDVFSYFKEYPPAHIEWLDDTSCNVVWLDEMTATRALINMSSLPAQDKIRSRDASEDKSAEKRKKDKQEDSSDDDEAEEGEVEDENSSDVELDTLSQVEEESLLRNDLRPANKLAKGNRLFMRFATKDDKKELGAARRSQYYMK
From the text: isothermal titration calorimetry on NCBP3 1–282

[4] = molecular target: T4, CBP20/2xCBP80 (CBC) (Homo sapiens, UniProt P52298); experiment: isothermal titration calorimetry; type: binding; settings: 250 mM NaCl, 20 mM HEPES, 2 mM TCEP, pH 7.8, 25 °C; CBP80 present (2x)
T4 construct: gene NCBP2; CBP20-CBP80 heterodimer, CBP80 added 2x (apparently molar excess)
T4 sequence (P52298 2-156): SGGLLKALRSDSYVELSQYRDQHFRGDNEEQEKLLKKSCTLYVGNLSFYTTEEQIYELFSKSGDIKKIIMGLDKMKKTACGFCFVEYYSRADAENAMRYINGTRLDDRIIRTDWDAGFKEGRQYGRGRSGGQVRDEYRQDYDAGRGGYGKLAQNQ
T4 sequence (Q09161 20-790 partner limits assumed): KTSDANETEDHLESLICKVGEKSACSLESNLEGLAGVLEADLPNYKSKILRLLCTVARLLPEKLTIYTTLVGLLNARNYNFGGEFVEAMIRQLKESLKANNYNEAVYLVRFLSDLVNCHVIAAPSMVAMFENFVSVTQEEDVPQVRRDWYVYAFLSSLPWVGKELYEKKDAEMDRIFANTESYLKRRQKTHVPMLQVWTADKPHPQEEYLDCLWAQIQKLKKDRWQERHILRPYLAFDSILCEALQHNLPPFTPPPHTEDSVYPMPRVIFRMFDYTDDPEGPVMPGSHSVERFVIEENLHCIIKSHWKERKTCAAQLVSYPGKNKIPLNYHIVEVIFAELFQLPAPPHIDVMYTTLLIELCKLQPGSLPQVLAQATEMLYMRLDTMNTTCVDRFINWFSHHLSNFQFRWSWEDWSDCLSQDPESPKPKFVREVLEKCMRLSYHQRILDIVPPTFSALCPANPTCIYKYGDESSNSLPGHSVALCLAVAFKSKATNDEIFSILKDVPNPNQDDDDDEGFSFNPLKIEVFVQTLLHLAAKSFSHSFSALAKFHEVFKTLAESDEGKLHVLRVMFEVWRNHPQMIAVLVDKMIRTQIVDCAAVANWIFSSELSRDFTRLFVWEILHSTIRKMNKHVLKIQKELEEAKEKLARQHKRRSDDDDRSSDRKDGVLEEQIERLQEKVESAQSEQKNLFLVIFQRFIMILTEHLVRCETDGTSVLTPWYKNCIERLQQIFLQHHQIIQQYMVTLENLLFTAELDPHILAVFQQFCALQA
From the text: isothermal titration calorimetry on CBP20/2xCBP80 (CBC)

[5] = molecular target: T5, CBP20 (Homo sapiens, UniProt P52298); experiment: isothermal titration calorimetry; type: binding; settings: 250 mM NaCl, 20 mM HEPES, 2 mM TCEP, pH 7.8, 25 °C; CBP20 without CBP80
T5 construct: gene NCBP2; CBP20 alone, recombinant, purified as described previously
T5 sequence (P52298 2-156): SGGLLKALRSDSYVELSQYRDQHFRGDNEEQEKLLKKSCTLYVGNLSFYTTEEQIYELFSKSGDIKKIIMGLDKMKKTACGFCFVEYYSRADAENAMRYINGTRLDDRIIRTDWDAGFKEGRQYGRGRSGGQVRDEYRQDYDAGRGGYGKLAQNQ
From the text: isothermal titration calorimetry on CBP20

[6] = molecular target: T6, ARS2^147–871 (human, UniProt Q9BXP5-4 147-871); experiment: pull-down; GST–FLASH 903–943 (or GST as control) immobilised on glutathione sepharose, incubated with purified ARS2 constructs 30 min at 10 °C; flow-through, wash and elution on Coomassie-stained SDS-PAGE; settings: both partners purified
T6 construct: human ARS2 (SRRT) isoform-e, 871 residues, residues 147-871, cloned into pETM11; also called hARS2; SRRT; source: E. coli Rosetta 2, purified (Ni-Sepharose, TEV cleavage, HiTrap Q, heparin if necessary, SEC); not shown: His6, N-terminal, cleaved
T6 sequence (looked up): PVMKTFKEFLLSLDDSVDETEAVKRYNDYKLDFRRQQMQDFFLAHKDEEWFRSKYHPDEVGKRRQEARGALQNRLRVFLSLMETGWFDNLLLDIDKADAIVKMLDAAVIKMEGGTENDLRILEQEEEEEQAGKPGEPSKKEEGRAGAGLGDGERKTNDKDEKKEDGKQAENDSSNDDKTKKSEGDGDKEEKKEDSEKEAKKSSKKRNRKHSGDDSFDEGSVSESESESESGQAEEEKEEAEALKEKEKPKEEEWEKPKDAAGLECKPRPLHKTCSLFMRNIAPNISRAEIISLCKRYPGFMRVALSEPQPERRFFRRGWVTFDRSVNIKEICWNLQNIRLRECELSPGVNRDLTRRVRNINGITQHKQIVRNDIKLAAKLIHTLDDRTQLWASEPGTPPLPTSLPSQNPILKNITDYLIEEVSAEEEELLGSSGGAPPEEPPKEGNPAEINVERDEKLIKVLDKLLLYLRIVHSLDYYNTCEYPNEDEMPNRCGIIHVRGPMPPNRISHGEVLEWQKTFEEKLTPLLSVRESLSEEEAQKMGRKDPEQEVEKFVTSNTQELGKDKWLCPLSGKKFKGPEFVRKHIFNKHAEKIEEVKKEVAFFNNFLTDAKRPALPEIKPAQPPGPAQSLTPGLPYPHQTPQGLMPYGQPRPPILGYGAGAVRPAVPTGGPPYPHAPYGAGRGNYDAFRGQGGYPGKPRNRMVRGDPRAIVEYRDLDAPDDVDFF

With `C[n+]1cn([C@@H]2O[C@H](COP(=O)(O)OP(=O)(O)OP(=O)(O)O)[C@@H](O)[C@H]2O)c2nc(N)[nH]c(=O)c21` [m^7GTP] the Kd [1] was 4.6 ± 1 µM, the Kd [2] was 7.9 ± 0.9 µM and the Kd [3] was 8.3 ± 3 µM. It also gave a Kd [4] of 0.37 ± 0.04 µM and a Kd [5] of 84 ± 4.2 µM.

B1: GST–FLASH^903–943 (domain or fragment, UniProt Q9UKL3 903-943, looked up)
chain: SDLNKENQKPIYKSDKCTEADTCKNSPLDELEEGEIRSDSE
notes: FLASH (FLICE-associated huge protein), residues 903-943, holds FARB; cloned into the GST-vector pETM30; source: E. coli, expressed and purified; immobilised on glutathione sepharose
B1: binds [6].
